Reference: patent US20130158112A1, “COMPOSITIONS AND METHODS FOR INHIBITING BETA AMYLOID SECRETION” (priority 2011, published 2013)
Read-outs that look alike come from different tables or passages of the source.

Assays:
Aβ secretion [1] = assay: PKC inhibitors experiment on Aβ secretion; type: cell-based, human; conditions: for effect on basal Aβ secretion: PKC inhibitor alone; for effect of PKC inhibitor on compound 1 inhibited Aβ secretion: inhibitor given 30 min prior to compound 1
Description: (§1) H4βAPP695 wt cells, a human […] cell line stably transfected with a wtβAPP695 expression vector construct under the control of a CMV promoter (kindly provided by Dr. Chris Eckman from Mayo Clinic, Florida) were cultured as previously described. Twenty-four hours before drug treatment, the media was replaced with serum-free media. Cells were then incubated with drugs (dissolved in DMSO) or vehicle for 24 h for collection of conditioned media and cell lysates. For the PKC inhibitors experiment, three inhibitors were treated 30 min prior to drug challenge. Primary cortical neurons were prepared from embryonic day 18 APP and presenilin 1 (APPswe, PSEN1dE9) transgenic mice on the C57BL/6 genetic background (Jackson Laboratories, strain no. 5864) as previously described. THLE-3 human hepatoma cells (from ATCC) were plated in 24-well plates that were precoated with 10 μg/mL bovine serum albumin, 10 μg/mL fibronectin, and 30 μg/mL bovine type I collagen. The cells were grown in BEGM media (Clonetics) until confluent and treated with drugs at 20 μM for 24 h. This conditioned media was harvested, diluted 1:1 in serum-free medium, and incubated with H4βAPP695 wt cells for 24 h prior to analysis of secreted Aβ, which was compared to the effect of 10 μM drug treatments without prior incubation with the THLE-3 cells. Caco-2 cells (ATCC) were plated in 12-well plates with Transwell inserts (Costar) at 70000 cells per well and grown for 21 days. The media volume of the apical and basal chambers was 0.5 and 1.5 mL, respectively. Transepithelial resistance was measured in each well and found to be >160 Ω/cm^2. Drugs at 40 μM and 20 μg/mL of lucifer yellow were added in serum-free medium to the apical chamber. Four hours later, the basal chamber media was harvested and used to measure lucifer yellow fluorescence to confirm monolayer integrity as well as for treatment of H4βAPP695 wt cells for 24 h prior to analysis of secreted Aβ, which was compared to the effect of direct addition of 10 μM of the corresponding drug.
The tumor promoter phorbal myristate acetate is an activator of protein kinase C (PKC) that has been reported to activate α-secretase activity. Thus, we wanted to determine if protein kinase C inhibitors could block the effect of compound 1 on Aβ secretion.

H4βAPP695 wt cells = assay: Cytotoxicity by total cell protein content (BCA) of H4βAPP695 wt cells; conditions: cytotoxicity
Description: Cells were washed with cold phosphate buffered saline (PBS) and lysed on ice by vigorous mixing over 15 min with RIPA buffer containing 50 mM Tris-HCl (pH 8.0), 150 mM sodium chloride, 1% NP-40, 0.5% sodium deoxycholate, and 0.1% SDS, supplemented with 10% protease inhibitor cocktail and 2 mM PMSF. After centrifugation at 14000 g for 30 min to remove nuclei and other debris at 4° C., the protein content of the supernatants was measured using the BCA assay kit (Pierce).
The initial screen was performed in 96-well plates with drugs distributed by the hanging drop method yielding estimated drug levels of 10-25 μM. Total Aβ levels in the 24 h conditioned media were measured by a sandwich ELISA assay, and cytotoxicity was assessed by methylene blue staining of the cells in the wells, as previously described.

[2] = test system: THLE-3 human hepatoma cells; assay: Drug activity persistence after incubation with THLE-3 hepatoma cells; type: in vitro ADME; conditions: for inhibition at 10 µM: Homo sapiens, THLE3, 24 h; for % remaining Activity: after 24 h incubation with hepatoma cells
Description: as §1
To screen for resistance to metabolism, 1 and eight noncytotoxic analogues with >50% Aβ reducing activity (compounds 27, 29, 48, 52, 53, 65, 73, and 76) were incubated at 20 μM for 24 h with or without THLE-3 human hepatoma cells.

Aβ secretion [3] = assay: Secreted total Aβ ELISA in conditioned media of H4βAPP695 wt cells; type: cell-based, human; conditions: for inhibition at 10 µM / inhibition at 30 µM: Homo sapiens, 24 h, H4βAPP695 wt cells; for inhibition at 10 µM: read-out: Total Aβ (% decrease) 10 μM Mean; for inhibition at 30 µM: read-out: Total Aβ (% decrease) 30 μM Mean; for Aβ secretion inhibiting activity (structure activity summary): in words
Description: as §1

Caco-2 cells = assay: Epithelial transcellular transport of drug activity through Caco-2 monolayers; type: in vitro ADME; conditions: for % theoretical activity: % of activity passing through Caco-2 monolayer; for inhibition at 10 µM / inhibition at up to 10 µM: Homo sapiens; for inhibition at 10 µM: Caco-2, 10 μM drug alone added directly to H4βAPP695 wt cells, read-out: transcellular transport No total Aβ (% decrease); for inhibition at up to 10 µM: Caco-2, 4 h, lower chamber media after 4 h on Caco-2 monolayer, 10 μM if in equilibrium, read-out: transcellular transport Yes total Aβ (% decrease)
Description: as §1
Monolayer integrity was confirmed by high levels of transcellular electrical resistance (>160 ohms/cm^2) and by transcellular impermeability to the fluorescent dye lucifer yellow. […] The concentration of each compound added to the upper chamber would lead to 10 μM in the lower chamber if equilibration was complete, and thus the activity of the lower chamber media was compared to the activity of 10 μM drug added directly to the H4βAPP695 wt cells. […] Compound 1 crossed the monolayer and the bottom chamber media led to a 27% reduction in Aβ production, yielding 38% of the theoretical activity. The compound with the most activity in the lower chamber was compound 48, which decreased Aβ production by 50%, with 71% of its theoretical activity. […] On the basis of the combined activity data from these last two studies, compound 48 was selected as the lead drug for in vivo study.

[4] = 10 μM on H4 cells, without preincubation with hepatoma cells, read-out: hepatoma incubation No total Aβ (% decrease)
[5] = 20 μM preincubated 24 h with THLE-3 hepatoma cells, diluted to 10 μM on H4 cells, read-out: hepatoma incubation Yes total Aβ (% decrease)

Compound	effect on basal Aβ secretion (Aβ secretion [1])	effect of PKC inhibitor on compound 1 inhibited Aβ secretion (Aβ secretion [1])	Cell protein (% decrease) 10 μM Mean (H4βAPP695 wt cells)	Cell protein (% decrease) 30 μM Mean (H4βAPP695 wt cells)	inhibition at 10 µM [2, 4]	inhibition at 10 µM [2, 5]	% remaining Activity [2]	inhibition at 10 µM (Aβ secretion [3])	inhibition at 30 µM (Aβ secretion [3])	Aβ secretion inhibiting activity (structure activity summary) (Aβ secretion [3])	% theoretical activity (Caco-2 cells)	inhibition at 10 µM (Caco-2 cells)	inhibition at up to 10 µM (Caco-2 cells)	melting point	hepatoma incubation Yes total Aβ (% decrease) ([2]; 20 μM preincubated 24 h with THLE-3 hepatoma cells, diluted to 10 μM on H4 cells)
CN(C)CCCn1cc(C2=C(c3c[nH]c4ccccc34)C(=O)NC2=O)c2ccccc21 [Bisindolylmaleimide I]	no effect	no effect													
COc1cccc(CSCCNC(=O)c2c(Cl)cccc2Cl)c1 [Compound 27, 2,6-dichloro-N-[2-(3-methoxy-benzylsulfanyl)-ethyl]-benzamide]			8.4%	13.2%	60.6%	22.2%	37%	> 50%	73.9%	good activity	29.5%	60.6%	17.9%		
O=C(NCCSCc1cccc(O)c1)c1c(Cl)cccc1Cl [Compound 29, 2,6-dichloro-N-[2-(3-hydroxy-benzylsulfanyl)-ethyl]-benzamide]			6.3%	6.6%	56.4%	23.1%	41%	> 50%	67.7%	good activity					
COc1cccc(CSCCNC(=O)c2c(Cl)cccc2Cl)c1OC [Compound 52, 2,6-Dichloro-N-[2-(2,3-dimethoxy-benzylsulfanyl)-ethyl]-benzamide]			−0.1%	8.7%	57.8%	1.9%		> 50%	72.8%	could be tolerated	45.9%	57.8%	26.5%	108 to 110 °C	
O=C(NCCSCc1cccc(I)c1)c1c(Cl)cccc1Cl [Compound 53, 2,6-Dichloro-N-[2-(3-iodo-benzylsulfanyl)-ethyl]-benzamide]			9.2%	19%	84.4%	40%	47%		88.3%	good activity	1.3%	84.4%	1%	75 to 78 °C	40.0%
O=C(NCCSCc1ccccc1)c1c(Cl)cccc1Cl [Compound 65, N-(2-Benzylsulfanyl-ethyl)-2,6-dichloro-benzamide]			−1.1%	−0.7%	51.6%	27%	52%	> 50%	58.6%	retained activity	60.1%	51.6%	31%	96 to 97 °C	
O=C(NCCSCc1cccc(NC(=O)C2CC2)c1)c1c(Cl)cccc1Cl [Compound 69, 2,6-Dichloro-N-(2-[3-(cyclopropanecarbonyl-amino)-benzylsulfanyl]-ethyl)-benzamide]			3%	3.2%				-21.4%	-2%	did not yield good activity				46 to 47 °C	
O=C(NCC[S+]([O-])Cc1cccc(Cl)c1)c1c(Cl)cccc1Cl (centres unmarked) [Compound 71, 2,6-Dichloro-N-[2-(3-chloro-phenylmethanesulfinyl)-ethyl]-benzamide]			−4.9%	7.3%				4%	-16.5%	No tested substitutions in the linker region were well tolerated				174 to 176 °C	
O=C(NCCOCc1cccc(Cl)c1)c1c(Cl)cccc1Cl [Compound 72, 2,6-Dichloro-N-[2-(3-chloro-benzyloxy)-ethyl]-benzamide]			−9.9%	4.2%				10.5%	-5.1%	No tested substitutions in the linker region were well tolerated				70 to 72 °C	
COc1cc(Cl)cc(CSCCNC(=O)c2c(Cl)cccc2Cl)c1 [Compound 73, 2,6-Dichloro-N-[2-(3-chloro-5-methoxy-benzylsulfanyl)-ethyl]-benzamide]			0.9%	0.4%	67.7%	33.5%	49%	> 50%	81%	could be tolerated	4.0%	67.7%	2.7%	83 to 84 °C	
O=C(NCCSCc1cccc(Cl)c1)c1c(C(F)(F)F)cccc1C(F)(F)F [Compound 74, N-[2-(3-Chloro-benzylsulfanyl)-ethyl]-2,6-bis-trifluoromethyl-benzamide]			−4.2%	−0.4%				6.2%	13.5%	not well tolerated				93 to 94 °C	
O=C(NCCSCc1ccccc1Cl)c1c(Cl)cccc1Cl [Compound 76, 2,6-Dichloro-N-[2-(2-chloro-benzylsulfanyl)-ethyl]-benzamide]			−0.5%	−11%	75.6%	49%	65%		80%	retained activity	41.8%	75.6%	32%	110 to 112 °C	
O=C(NCCSCc1ccc(Cl)cc1)c1c(Cl)cccc1Cl [Compound 77, 2,6-Dichloro-N-[2-(4-chloro-benzylsulfanyl)-ethyl]-benzamide]			−6.4%	3%				21.8%	36.5%	loss of activity				104 to 106 °C	
CC(=O)c1c(O)c(C)c(O)c(Cc2c(O)c3c(c(C(=O)/C=C/c4ccccc4)c2O)OC(C)(C)C=C3)c1O [Rottlerin]	reduced Aβ secretion	did not significantly alter the effect of compound 1													
Calphostin C	no effect	no effect													
